# Tested on: rodents
# Assay: not given
# Conditions: elevated plus maze and light/dark test in rodents; cited from earlier work
row,Structure (SMILES),efficacy in exploration based procedures sensitive to anxiolytics
1,CC(=O)NC1(c2ccccc2)CCN(CC[C@H](CN(C)C(=O)c2ccccc2)c2ccc(Cl)c(Cl)c2)CC1 [Saredutant],effective

# Tested on: mouse, gerbils and marmosets
# Assay: not given
# Conditions: cited from earlier work
row,Structure (SMILES),efficacy in procedures sensitive to anti-depressants
1,CC(=O)NC1(c2ccccc2)CCN(CC[C@H](CN(C)C(=O)c2ccccc2)c2ccc(Cl)c(Cl)c2)CC1 [Saredutant],Efficacy

# Target: T1, human NK2 receptor (Homo sapiens, UniProt P21452)
# T1 construct: purchased Perkin Elmer biosignal Inc. 6110510
# T1 sequence (P21452 1-398): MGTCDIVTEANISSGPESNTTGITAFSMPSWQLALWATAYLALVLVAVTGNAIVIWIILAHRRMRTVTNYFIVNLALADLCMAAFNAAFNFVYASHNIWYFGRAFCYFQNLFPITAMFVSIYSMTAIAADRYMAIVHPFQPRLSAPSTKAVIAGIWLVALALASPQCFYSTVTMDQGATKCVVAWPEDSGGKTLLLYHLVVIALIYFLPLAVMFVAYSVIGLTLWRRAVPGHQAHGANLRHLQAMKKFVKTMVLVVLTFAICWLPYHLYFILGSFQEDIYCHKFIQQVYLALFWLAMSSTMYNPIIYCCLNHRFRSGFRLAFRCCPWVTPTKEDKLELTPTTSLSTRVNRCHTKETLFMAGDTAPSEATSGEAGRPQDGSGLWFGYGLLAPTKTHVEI
# Assay: [3H]SR48968 competition binding assay
# Conditions: [3H]SR48968 displacement, membranes of CHO cells stably expressing recombinant human NK2 receptor; Ki from IC50 by Cheng-Prussoff
# How it was run: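 Membranes from CHO cells stably expressing recombinant human NK2 were incubated 75 min at RT with [3H]SR48968 at its KD and 10 compound concentrations (0.0003–10 μM) in Tris-HCl pH 7.4, MnCl2, chymostatin, BSA. Filter-bound radioactivity was counted; Hill-fitted IC50 converted to Ki via Cheng-Prusoff.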
row,Ki [nM],Structure (SMILES)
1,1.7,"CN(C(=O)c1ccc(Cl)c(C2CC2)c1)[C@H]1CN(C(=O)C2CCN(C(=O)C3(C)CC3)CC2)C[C@@H]1c1ccc(Cl)c(Cl)c1 (racemic) [Example 173, 4-Chloro-3-cyclopropyl-N-{(3RS,4SR)-4-(3,4-dichloro-phenyl)-1-[1-(1-methyl-cyclopropanecarbonyl)-piperidine-4-carbonyl]-pyrrolidin-3-yl}-N-methyl-benzamide]"
2,0.9,"CCc1cc(C(=O)N(C)[C@H]2CN(C(=O)C3CCN(C(=O)C4(C)CC4)CC3)C[C@@H]2c2ccc(Cl)c(Cl)c2)ccc1Cl (racemic) [Example 174, 4-Chloro-N-{(3RS,4SR)-4-(3,4-dichloro-phenyl)-1-[1-(1-methyl-cyclopropanecarbonyl)-piperidine-4-carbonyl]-pyrrolidin-3-yl}-3-ethyl-N-methyl-benzamide]"
3,1.4,COc1ccc(C(=O)N(C)[C@@H]2CN(C(=O)N3CCN(S(C)(=O)=O)[C@@H](C)C3)C[C@H]2c2ccc(Cl)c(Cl)c2)cc1C(F)(F)F [Example 42]
4,2.23,COc1ccc(C(=O)N(C)[C@@H]2CN(C(=O)N3CCN(S(C)(=O)=O)[C@H](C)C3)C[C@H]2c2ccc(Cl)c(Cl)c2)cc1C(F)(F)F [Example 43]
5,0.6,"COc1ccc(C(=O)N(C)[C@@H]2CN(C(=O)C3CCN(C(=O)C4(C)CC4)CC3)C[C@H]2c2ccc(Cl)cc2)cc1C(F)(F)F [Example 94, N-{(3S,4R)-4-(4-Chloro-phenyl)-1-[1-(1-methyl-cyclopropanecarbonyl)-piperidine-4-carbonyl]-pyrrolidin-3-yl}-4-methoxy-N-methyl-3-trifluoromethyl-benzamide]"
6,0.6,"COc1ccc(C(=O)N(C)[C@@H]2CN(C(=O)C3CCN(C(=O)C4(C)CC4)CC3)C[C@H]2c2ccc(Cl)c(Cl)c2)cc1C(F)(F)F [Example 107, N-{(3S,4R)-4-(3,4-Dichloro-phenyl)-1-[1-(1-methyl-cyclopropanecarbonyl)-piperidine-4-carbonyl]-pyrrolidin-3-yl}-4-methoxy-N-methyl-3-trifluoromethyl-benzamide]"
7,32.4,"CN(C(=O)Cc1ccc(F)cc1)[C@H]1CN(C(=O)C2CCN(C(=O)C3(C)CC3)CC2)C[C@@H]1c1ccc(Cl)c(Cl)c1 [Example 118, N-{(3R,4S)-4-(3,4-Dichloro-phenyl)-1-[1-(1-methyl-cyclopropanecarbonyl)-piperidine-4-carbonyl]-pyrrolidin-3-yl}-2-(4-fluoro-phenyl)-N-methyl-acetamide]"
8,11.3,"CN(C(=O)Cc1ccc(F)cc1)[C@@H]1CN(C(=O)C2CCN(C(=O)C3(C)CC3)CC2)C[C@H]1c1ccc(Cl)c(Cl)c1 [Example 119, N-{(3S,4R)-4-(3,4-Dichloro-phenyl)-1-[1-(1-methyl-cyclopropanecarbonyl)-piperidine-4-carbonyl]-pyrrolidin-3-yl}-2-(4-fluoro-phenyl)-N-methyl-acetamide]"
9,38,"COc1ccc(C(=O)N(C)[C@H]2CN(C(=O)C3CCN(C(=O)C4(C)CC4)CC3)C[C@@H]2c2ccc(Cl)cc2C)cc1C(F)(F)F [Example 123, N-{(3R,4S)-4-(4-Chloro-2-methyl-phenyl)-1-[1-(1-methyl-cyclopropanecarbonyl)-piperidine-4-carbonyl]-pyrrolidin-3-yl}-4-methoxy-N-methyl-3-trifluoromethyl-benzamide]"
10,52.7,"CN(C(=O)c1ccc(Cl)c(C(F)(F)F)c1)[C@H]1CN(C(=O)C2CCN(CC3CC3)CC2)C[C@@H]1c1ccc(Cl)cc1 [Example 153, 4-Chloro-N-[(3R,4S)-4-(4-chloro-phenyl)-1-(1-cyclopropylmethyl-piperidine-4-carbonyl)-pyrrolidin-3-yl]-N-methyl-3-trifluoromethyl-benzamide]"
11,0.5,"CN(C(=O)c1ccc(Cl)c(C(F)(F)F)c1)[C@@H]1CN(C(=O)C2CCN(CC3CC3)CC2)C[C@H]1c1ccc(Cl)cc1 [Example 154, 4-Chloro-N-[(3S,4R)-4-(4-chloro-phenyl)-1-(1-cyclopropylmethyl-piperidine-4-carbonyl)-pyrrolidin-3-yl]-N-methyl-3-trifluoromethyl-benzamide]"
12,0.8,"CN(C(=O)c1ccc(Cl)c(C(F)(F)F)c1)[C@@H]1CN(C(=O)C2CCN(C(=O)C3(C)CC3)CC2)C[C@H]1c1ccc(Cl)cc1 [Example 156, 4-Chloro-N-{(3S,4R)-4-(4-chloro-phenyl)-1-[1-(1-methyl-cyclopropanecarbonyl)-piperidine-4-carbonyl]-pyrrolidin-3-yl}-N-methyl-3-trifluoromethyl-benzamide]"
13,93.6,"CN(C(=O)c1ccc(Cl)c(C(F)(F)F)c1)[C@@H]1CN(C(=O)C2CCN(CC3CC3)CC2)C[C@H]1c1ccc(Cl)c(Cl)c1 [Example 167, 4-Chloro-N-[(3S,4R)-1-(1-cyclopropylmethyl-piperidine-4-carbonyl)-4-(3,4-dichloro-phenyl)-pyrrolidin-3-yl]-N-methyl-3-trifluoromethyl-benzamide]"
14,0.4,"CN(C(=O)c1ccc(Cl)c(C(F)(F)F)c1)[C@H]1CN(C(=O)C2CCN(CC3CC3)CC2)C[C@@H]1c1ccc(Cl)c(Cl)c1 [Example 168, 4-Chloro-N-[(3R,4S)-1-(1-cyclopropylmethyl-piperidine-4-carbonyl)-4-(3,4-dichloro-phenyl)-pyrrolidin-3-yl]-N-methyl-3-trifluoromethyl-benzamide]"
15,0.4,"CN(C(=O)c1cc(C(F)(F)F)ccn1)[C@@H]1CN(C(=O)C2CCN(C(=O)C3(C)CC3)CC2)C[C@H]1c1ccc(Cl)c(Cl)c1 [Example 170, 4-Trifluoromethyl-pyridine-2-carboxylic acid {(3S,4R)-4-(3,4-dichloro-phenyl)-1-[1-(1-methyl-cyclopropanecarbonyl)-piperidine-4-carbonyl]-pyrrolidin-3-yl}-methyl-amide]"
16,42,"CN(C(=O)c1ccc(Cl)c(C2CC2)c1)[C@H]1CN(C(=O)C2CCN(C(=O)C3(C)CC3)CC2)C[C@@H]1c1ccc(Cl)c(Cl)c1 [Example 175, 4-Chloro-3-cyclopropyl-N-{(3R,4S)-4-(3,4-dichloro-phenyl)-1-[1-(1-methyl-cyclopropanecarbonyl)-piperidine-4-carbonyl]-pyrrolidin-3-yl}-N-methyl-benzamide]"
17,0.6,"CN(C(=O)c1ccc(Cl)c(C2CC2)c1)[C@@H]1CN(C(=O)C2CCN(C(=O)C3(C)CC3)CC2)C[C@H]1c1ccc(Cl)c(Cl)c1 [Example 176, 4-Chloro-3-cyclopropyl-N-{(3S,4R)-4-(3,4-dichloro-phenyl)-1-[1-(1-methyl-cyclopropanecarbonyl)-piperidine-4-carbonyl]-pyrrolidin-3-yl}-N-methyl-benzamide]"
